Test results taken from patent US20100210602A1, “PhoU (PerF), A P[…] INVOLVED IN [sequence] FORMATION AND TOLERANCE TO MULTIPLE ANTIBIOTICS AND [sequence] AS A DRUG TARGET FOR [sequence] BACTERIA” (priority 2006, published 2010).
≈ marks a conversion by molar mass, not a printed value.

What was measured:
[1] = molecular target: T1, PhoU (Escherichia coli, UniProt P0A9K7); test: PhoU phosphatase substrate specificity; format: biochemical, E. coli; details: pH5, pH7 and pH8
T1 construct: His; made in house
Method: Different substrates for the PhoU phosphatase activity were tested. […] For PhoU, the substrates acetyl-P, carbamoyl-P, imido-di phosphate (imido-di-P), r-nitrophenyl phosphate (rNPP), β-Nicotinamide adenine dinucleotide phosphate (NADP), Glucose-1,6-bisphosphate (Glucose-1,6-bisP) were tested at pH5, pH7, and pH8 condition, as potential PhoU phosphatase activity.

[2] = system: H37Rv; test: microbe, parasite or virus in culture; format: cell-based, M. tuberculosis; details: Mycobacterium tuberculosis
[3] = system: H37Rv; test: microbe, parasite or virus in culture; format: cell-based, M. tuberculosis; details: Mycobacterium tuberculosis, 240 h, 10 days at 37° C.
[4] = system: parent strain H37Rv; format: cell-based, M. tuberculosis; details: 8 μg/ml
[5] = molecular target: PhoY2 (Mycobacterium tuberculosis, UniProt P9WI95); test: EnzChek phosphatase assay, FDA approved compound library screen; format: biochemical, M. tuberculosis; details: 50 μM final concentration; 30 min, 60 min and overnight
Method: The FDA approved compound library consisting of about 3000 clinical compounds (50 μM final concentration) was screened for inhibitory activity for M. tuberculosis PhoU homolog PhoY2 for phosphatase activity using the EnzChek phosphatase assay kit in a 96 well plate format. The assay was run for 30 min, 60 min and overnight when the plates were read in a fluorescence plate reader (Perkin Elmer). Aurintricarboxylic acid, a known phosphatase inhibitor, was included as a positive control.

T1 sequence (P0A9K7 whole entry): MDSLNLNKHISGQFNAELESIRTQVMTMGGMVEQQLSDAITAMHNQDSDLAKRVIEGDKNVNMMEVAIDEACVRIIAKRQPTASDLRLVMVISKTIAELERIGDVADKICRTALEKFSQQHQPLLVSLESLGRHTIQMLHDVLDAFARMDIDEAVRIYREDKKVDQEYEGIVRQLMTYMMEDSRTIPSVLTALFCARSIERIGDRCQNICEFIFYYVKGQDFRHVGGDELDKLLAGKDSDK
Chain of PhoY2 (P9WI95 whole entry): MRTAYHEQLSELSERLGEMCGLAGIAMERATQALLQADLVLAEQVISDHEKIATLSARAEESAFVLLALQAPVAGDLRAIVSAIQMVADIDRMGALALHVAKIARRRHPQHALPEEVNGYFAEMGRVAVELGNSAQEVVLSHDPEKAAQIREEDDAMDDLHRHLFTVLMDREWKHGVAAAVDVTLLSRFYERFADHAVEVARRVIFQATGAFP

Question: With `O=P(O)(O)OC[C@H]1O[C@H](OP(=O)(O)O)[C@H](O)[C@@H](O)[C@@H]1O` [Glucose-1,6-bisP, Glucose-1,6-bisphosphate] as the compound, how does the “rank as PhoU phosphatase substrate” value [1] read?
Answer: acetyl-P>rNPP>carbamoyl-P>Glucose-1,6-bisP>NADP

Question: `O=[N+]([O-])c1ccc(OP(=O)(O)O)cc1` [rNPP, r-nitrophenyl phosphate] was tested. Which “rank as PhoU phosphatase substrate” value [1] did it give?
Answer: acetyl-P>rNPP>carbamoyl-P>Glucose-1,6-bisP>NADP

Question: Which results are given for `CO[C@H]1/C=C/O[C@@]2(C)Oc3c(C)c(O)c4c(O)c(c(/C=N/N5CCN(C)CC5)c(O)c4c3C2=O)NC(=O)/C(C)=C\C=C\[C@H](C)[C@H](O)[C@@H](C)[C@@H](O)[C@@H](C)[C@H](OC(C)=O)[C@@H]1C` [RIF, rifampin]?
Answer: MBC [2]: 0.2 mg/L (≈ 0.243 µM); MIC [2]: 0.1 mg/L (≈ 0.122 µM); MIC [3]: 0.2 mg/L (≈ 0.243 µM); CFU/ml 3 day [4]: 3.37 × 10^5 CFU/ml

Question: For “β-Nicotinamide adenine dinucleotide phosphate [NADP]”, which “rank as PhoU phosphatase substrate” value [1] is on record?
Answer: acetyl-P>rNPP>carbamoyl-P>Glucose-1,6-bisP>NADP

Question: `NC(=O)OP(=O)(O)O` [carbamoyl-P, carbamoyl phosphate] was tested. Which “rank as PhoU phosphatase substrate” value [1] did it give?
Answer: acetyl-P>rNPP>carbamoyl-P>Glucose-1,6-bisP>NADP

Question: How did the “inhibition of PhoY2 enzyme activity in library screen” value [5] turn out when `CN1CCCN=C1/C=C/c1cccs1` [pyrantel pamoate] was run?
Answer: inhibit PhoY2 enzyme activity
